Laboratory results: US20120328713A1, “Articles of Manufacture with Improved Anti-microbial Properties” (priority 2009, published 2012)

Experiments:
P. aeruginosa ATCC 27853 = assay: Silver (III) periodate efficacy testing in the presence of Cl-, SO4 2-, and PO4 3-; type: cell-based; conditions: water, 1% NaCl, 1% K2SO4 and 1% K2HPO4 solutions; challenge time 30 minutes; tested 1.5-200 ppm
Method: Silver (III) periodate was tested for efficacy in water, 1% NaCl, 1% K2SO4, and 1% K2HPO4 solutions, and compared with silver nitrate. The test solutions were tested against P. aeruginosa ATCC 27853. The challenge time was 30 minutes. Silver (III) periodate and silver nitrate were tested at range of 1.5-200 ppm.

[1] = test system: relevant clinical pathogens in biofilm form (Pseudomonas aeruginosa, MRSA, MRSE, Acinetobacter baumanii, Listeria monocytogenes, VRE, Escherichia coli, Candida …); assay: MBEC efficacy testing against relevant clinical pathogens in saline; type: cell-based; conditions: challenge time 4 hours, 2000 ppm to 15.62 ppm
Method: The antimicrobial effect of silver (III) periodate and silver nitrate (2000 ppm to 15.62 ppm) in saline was tested against Pseudomonas aeruginosa, Staphylococcus aureus (MRSA), Staphylococcus epidermidis (MRSE), Acinetobacter baumanii, Listeria monocytogenes, Enterococcus faecalis (VRE), Escherichia coli, Candida albicans, Klebsiella pneumonia, Enterobacter aerongenes. The challenge time was 4 hours.

[2] = test system: Candida albicans ATCC 28367; assay: MBEC P&G assay in dilutions of human serum; type: cell-based
Method: (§1) The effects of silver (III) periodate and silver nitrate were tested in different dilutions of human serum (0.001%, 0.01%, 0.1%, 1%, 10%, 50%) using the MBECTM P&G assay against relevant clinical human pathogens Escherichia coli, Staphylococcus aureus (MRSA), and Candida albicans. The challenge time was 4 hours. The tested concentration range for the silver compounds was 500 to 7.8 ppm.

[3] = test system: Escherichia coli ATCC 25922; assay: MBEC P&G assay in dilutions of human serum; type: cell-based
Method: as §1

[4] = test system: Staphylococcus aureus (MRSA) 456; assay: MBEC P&G assay in dilutions of human serum; type: cell-based
Method: as §1

[5] = test system: Escherichia coli (ATCC 25922); assay: MBEC P&G assay in dilutions of urine; type: cell-based
Method: (§2) The effects of silver (III) periodate and silver nitrate in different dilutions of urine (0.001%, 0.01%, 0.1%, 1%, 10%, 50%) using the MBEC™ P&G assay were tested against Escherichia coli (ATCC 25922)The challenge time was 4 hours. The tested concentration range for both silver compounds was 500 to 7.8 ppm.

[6] = test system: Escherichia coli (ATCC 25922); assay: MBEC P&G assay in dilutions of feces; type: cell-based
Method: The challenge time was 4 hours. The tested concentration range for both silver compounds was 500 to 7.8 ppm.

[7] = test system: Escherichia coli (ATCC 25922); assay: MBEC P&G assay in dilutions of mucin; type: cell-based
Method: as §2, with “mucin (2.0%, 1.0%, 0.5%, 0.25%, 0.12%, 0.06%) were tested” for “urine (0.001%, 0.01%, 0.1%, 1%, 10%, 50%)”, “assay” for “assay were tested”

[8] = test system: bacterial speck (Pseudomonas syringae pv. tomato); assay: Field trial, foliar spray against bacterial speck in tomatoes (Example 18); type: in vivo, tomatoes (Lycopersicon esculentum); conditions: after three treatment sprays
[9] = test system: bacterial canker (Clavibacter michiganensis pv. michiganensis); assay: Field trial, foliar spray against bacterial canker in tomatoes (Example 19); type: in vivo, tomatoes (Lycopersicon esculentum)
Method: Silver (III) periodate was tested as a bactericidal foliar spray treatment against bacterial canker (Clavibacter michiganensis pv. michiganensis) in tomatoes (Lycopersicon esculentum).
See Example 18 for Preparation of Tomato Seed; Preparation of Field; Seeding; Plot Maintenance; Preparation of Spray Treatment Solutions and Inoculum; Spray Treatment Procedure; and Data Collection.

bacterial speck = assay: Field trial, foliar spray against bacterial speck in tomato (Example 22); type: in vivo; conditions: compared with the standard Kocide and Kocide+Dithane
Method: Silver (III) periodate was tested as a foliar spray treatment fungicide against bacterial speck in tomato.
See Example 22 for Preparation of Tomato Seed; Preparation of Field; Seeding; Plot Maintenance; Preparation of Spray Treatment Solutions and Inoculum; Spray Treatment Procedure; and Data Collection.
The treatments compared were water (control), oxysilver nitrate, silver (III) periodate, Dithane, Kocide 2000, Dithane DG 75+Kocide 2000, oxysilver nitrate+Dithane, and silver (III) periodate+Dithane, Serenade Max, and Serenade Max+oxysilver nitrate.

[10] = test system: alternaria leaf blight (Alternaria brassicicola); assay: Field trial, foliar spray against alternaria leaf blight in cauliflower and broccoli (Example 23); type: in vivo
Method: (§3) Silver (III) periodate was tested as a fungicidal foliar spray treatment against alternaria leaf blight (Alternaria brassicicola) and downy mildew (Peronospora paratsitica Lui) in cauliflower (Brassica oleracea var. botrytis) and broccoli (Brassica oleracea […]), respectively.
Preparation of Seed, Preparation of Field, Seeding, Plot Maintenance: Two trials were conducted in organic soil (pH ≈7.2, organic matter ≈47.2%). Cauliflower and broccoli were seeded into 128-cell Plastomer plug trays in early June and hand transplanted in early July in two rows, 86 cm apart and 9 meter in length, with an in-row spacing of 40 cm. A randomized complete block arrangement with four replicates per treatment was used. Treatments were applied in July and August using a CO2 backpack sprayer equipped with 4 TeeJet D-2 hollow cone nozzles spaced 40 cm apart and calibrated to deliver 250 L/ha at 240 kPa.
This was immediately followed by irrigation to achieve leaf wetness. The plots were treated prior to inoculation.
Preparation of Spray Treatment Solutions and Inoculum: The treatment rate for silver (III) periodate was 0.16 kg/ha. It was also combined (at this rate) with Bravo, which was delivered at 2.5L/ha.
Data Collection: Plants were monitored weekly to determine when lesions were first observed. Plants (15 per rep, randomly selected and marked for continued assessment) were assessed twice during the growing season for number of lesions per leaf. As heads mature, 15 heads per rep in total were harvested and assessed from each experimental unit. The number of Alternaria le sions per leaf were counted. Healthy leaves were counted and trimmed head weights were recorded to indicate marketable yield.
Treatments compared were oxysilver nitrate, silver (III) periodate, Bravo, Bravo+oxysilver nitrate, Bravo+silver (III) periodate, and water (control).

[11] = test system: downy mildew (Peronospora paratsitica Lui); assay: Field trial, foliar spray against downy mildew (Example 24); type: in vivo; conditions: compared with the check
Method: as §3
See Example 23 for Preparation of Tomato Seed; Preparation of Field; Seeding; Plot Maintenance; Preparation of Spray Treatment Solutions and Inoculum; Spray Treatment Procedure; and Data Collection.

[Ag+3].[Na+].[Na+].[Na+].[Na+].[Na+].[O-][I+]([O-])([O-])([O-])([O-])O.[O-][I+]([O-])([O-])([O-])([O-])O [silver (III) periodate, sodium diperiodatoargentate]
effective concentration (P. aeruginosa ATCC 27853): 1.73 ppm | MBEC (minimum biofilm eradication concentration) killing activity [1]: higher killing activity than silver nitrate against most of the tested strains | log reduction ([2]; 0.1%, 0.01%, 0.001% human serum, concentrations higher than 125 ppm): higher log reductions | log reduction ([2]; 10% and 1% human serum, 31.25-125 ppm): Log reductions were higher | log reduction compared with silver nitrate ([3]; 0.1% and 0.01% human serum, low tested concentrations): lower log reduction than silver nitrate | difference in log reduction over silver nitrate ([3]; 50% and 10% human serum, even at concentrations as low as 7.8 ppm): 1.5-2.0 log reduction | log reduction, trend with compound concentration ([3]; human serum dilutions, in general, 4 hours, 500 to 7.8 ppm): log reductions decreased with the decrease in concentrations of silver (III) periodate | log reduction compared with the other compound ([4]; 0.001% human serum, 31.25-125 ppm): higher log reductions | killing activity ([4]; 0.1% and 0.01% human serum): no significant killing activity | killing activity, silver (III) periodate vs silver nitrate ([4]; high concentrations of human serum): no significant differences | MBC cut-off point ([5]; 10% urine): 31.25 ppm | MBC cut-off point ([5]; 100% urine): 250 ppm | log reduction ([5]; 500 and 250 ppm, all tested concentrations of urine): approximately equal log reductions | log reduction compared with the other compound ([5]; compound concentrations of 125 ppm and below): larger log reduction at the lower and middle concentrations | compound concentration giving the highest log reduction ([5]; concentrations at 125 ppm and below, urine): 62.5 ppm | MBC, effective level ([6]; 1.56% feces): > 15.6 ppm | MBEC, effective level ([6]; 1.56% feces): 125 ppm | MBC, effective level ([6]; 3.13% feces): > 31.25 ppm | MBEC, effective level ([6]; 3.13% feces): 250 ppm | MBC, effective level ([6]; 6.25% feces): > 62.5 ppm | MBEC, effective level ([6]; 6.25% feces): 125 ppm | MBC, effective level ([6]; 12.5% feces): > 62.5 ppm | MBC, effective level ([6]; 25% feces): higher than 125 ppm | MBC, effective level ([6]; 50% feces): higher than 125 ppm | MBEC, effective level ([6]; concentrations of feces higher than 12.5%, ineffective at highest tested concentration): > 500 ppm | log reduction, trend with compound concentration ([7]; higher concentrations of mucin): log reduction decreased with a decrease in concentration of silver (III) periodate | effectiveness compared with the other compound ([7]; higher concentrations of mucin (2% and 1%)): more effective than silver nitrate | log reduction, trend with compound concentration ([7]; lower concentrations of mucin (0.25%, 0.12% and 0.06%)): log reduction was relatively unaffected by the changes in concentration | effectiveness compared with the other compound ([7]; mucin 0.5%, 0.25%, 0.12% and 0.06%, lower compound concentrations): more effective than the lower tested concentrations of silver nitrate | disease severity on foliage [8]: best at reducing disease severity on foliage | disease severity on foliage ([9]; after three treatment sprays): best at reducing disease severity on foliage | disease severity on foliage ([9]; after two treatment sprays): best at reducing disease severity on foliage | levels of bacterial speck (number of infected leaves) or disease severity ratings (bacterial speck): did not have statistically different levels | harvest weights ([10]; broccoli): higher harvest weights (not significant) | Alternaria lesions per leaf ([10]; compared with the check, broccoli): significantly lower Alternaria lesions per leaf than the check | Alternaria lesions per leaf ([10]; second result paragraph, crop not given): higher Alternaria lesions per leaf than the check and other treatments | downy mildew severity indexes [11]: significantly lower downy mildew severity indexes than the check
